Source: ChEMBL document CHEMBL1124350, “Retinobenzoic acids. 4. Conformation of aromatic amides with retinoidal activity. Importance of trans-amide structure for the activity” (1989)
pEC50: −log10 of the molar value.

Key:
[1] = system: HL-60; assay: Compound was tested for differentiation-inducing activity against human promyelocytic leukemia cell line HL-60; assay type: functional; conditions: read-out: ED50 (the source's name)
[2] = system: HL-60; assay: Relative activity expressed as mean of ratio of effective dose of retinoic acid against HL-60 cell versus the compound; assay type: functional, Homo sapiens

| Structure (SMILES) | pEC50 [1] | Relative activity [2] |
| --- | --- | --- |
| CC1(C)CCC(C)(C)c2cc(NC(=O)c3ccc(C(=O)O)cc3)ccc21 [TAMIBAROTENE] | 9.10 | 350 |
| CC1(C)CCC(C)(C)c2cc(C(=O)Nc3ccc(C(=O)O)cc3)ccc21 | 9.47 | 720 |
| CC1(C)CCC(C)(C)c2cc3c(cc21)CN(c1ccc(C(=O)O)cc1)C3=O | 6.29 | 0.33 |
| CN(C(=O)c1ccc2c(c1)C(C)(C)CCC2(C)C)c1ccc(C(=O)O)cc1 | < 6.00 | < 0.01 |
| CC1=C(/C=C/C(C)=C/C=C/C(C)=C/C(=O)O)C(C)(C)CCC1 [TRETINOIN] | 8.62 | 100 |

The next lines start with results.

| pEC50 [1] | Structure (SMILES) | Relative activity [2] |
| --- | --- | --- |
| < 6.00 | CN(C(=O)c1ccc(C(=O)O)cc1)c1ccc2c(c1)C(C)(C)CCC2(C)C | <0.01 |
| 7.19 | CC1(C)CCC(C)(C)c2cc3c(ccn3C(=O)c3ccc(C(=O)O)cc3)cc21 | 2.6 |
| 6.82 | CC1(C)CCC(C)(C)c2cc3c(cc21)CCN3C(=O)c1ccc(C(=O)O)cc1 | 1.1 |
